As a reminder, the Cmax is the maximum level reached in the sampled fluid or tissue.

The values that follow come from patent US12729405B2, “Method and kit for determining benefit of chemotherapy” (St. Jude Children's Research Hospital, Inc., priority 2019, dated 2026).

Each structure is given as a SMILES string. Like-named read-outs stand apart in the source and are kept apart here.

In data set [1] the test system is primary human ALL cells. Description: cells. The following applies: for response of dasatinib-resistant T-ALL: dasatinib-resistant T-ALL cases, as well as cell lines; for response of dasatinib-sensitive primary T-ALL cases to other ABL inhibitors: subset of primary T-ALL samples (N=18). As to the method: Ex vivo Leukemia Drug Sensitivity Assay. Drug response of primary human ALL cells was evaluated using a co-culture system and flow cytometry assays. hTERT-immortalized mesenchymal stem cells ([…] Wang, et al. (2019) Nat. Commun. 10:3718) were first seeded in a 96-well plate format at a density of 10,000 cells per well in 100 μL of complete medium (RPMI-1640, L-glutamine, 10% fetal bovine serum and 1 μM Hydrocortisone). After 24 hours, leukemia cells were added at 160,000 cells per well to the stromal cell layer in 80 μL AIM-V medium along with 20 μL of drug solution prepared in the same medium. […] After 96 hours incubation at 37° C. with 5% CO2, cells were harvested and stained with CD19 or CD7 to identify leukemia blasts (for B-ALL and T-ALL, respectively). The total number of live leukemia cells were evaluated by using flow cytometry after Annexin V and DAPI staining. Drug-induced death was estimated by comparing to leukemia cells treated with the vehicle alone. The drug concentration that killed 50% of the leukemia cells (LC50 value) was determined using a dose-response model and as a measurement of drug sensitivity. Quality control was performed to remove cases with low viability (less than 1000 viable blast cells in each well in the absence of drugs on day 4).

The conditions of data set [2]: dasatinib dosing for CML, oral twice a day; cited from earlier work.

Regarding `COc1ccc(N(C(=O)Oc2c(C)cccc2C)c2ccnc(Nc3ccc(N4CCN(C)CC4)cc3)n2)c(OC)c1` [WH 4-023], in data set [1], the “cytotoxicity in dasatinib-sensitive cases” value is “potent cytotoxicity” and the “response of dasatinib-resistant T-ALL” value is reported as “largely did not respond”.

In the case of `Cc1nc(Nc2ncc(C(=O)Nc3c(C)cccc3Cl)s2)cc(N2CCN(CCO)CC2)n1` [dasatinib], the “T-ALL cases classified as dasatinib-sensitive” value in data set [1] (45 T-ALL cases, cutoff LC50 80 nM, 15 cases) came out at 33.3%. Further, the CC50 in data set [1] (Homo sapiens, 96 h, read-out: LC50 (mean), cases with high LC50, ALL samples, high-LC50 mode of bimodal distribution, 96 hours) was 12000 nM; in data set [1] (Homo sapiens, 96 h, read-out: LC50 (mean), cases with low LC50, ALL samples (352 children and adults), low-LC50 mode of bimodal distribution, 96 hours) it was 5.92 nM; in data set [1] (Homo sapiens, read-out: LC50 (range), cases with high LC50, ALL samples, high-LC50 mode, 20000 nM is the assigned ceiling) it was 102 to 20000 nM; in data set [1] (Homo sapiens, read-out: LC50, one T-ALL case with TCF7-SP1 fusion, 0.05 nM is the assigned floor value), at most 0.05 nM; in data set [1] (Homo sapiens, read-out: LC50, two additional T-ALL cases with the same SPI1 fusion gene, ex vivo), 0.05 nM; in data set [1] (human, 96 h) it was 0.05 to 79.4 nM. In data set [1] (adults with T-ALL, cutoff LC50 80 nM), the “dasatinib-sensitive T-ALL in adults” value was determined as 16.7%. Also, the “dasatinib-sensitive T-ALL in children” value in data set [1] (children with T-ALL, cutoff LC50 80 nM) is reported as 44.4%. In addition, the Cmax in data set [2] was 60 to 120 nM.

For the molecule `Cc1ccc(NC(=O)c2ccc(CN3CCN(C)CC3)cc2)cc1Nc1nccc(-c2cccnc2)n1` [imatinib], the “response of dasatinib-sensitive primary T-ALL cases to other ABL inhibitors” value in data set [1] is listed as “universally resistant”.

On to `Cc1cn(-c2cc(NC(=O)c3ccc(C)c(Nc4nccc(-c5cccnc5)n4)c3)cc(C(F)(F)F)c2)cn1` [nilotinib], for which the “response of dasatinib-sensitive primary T-ALL cases to other ABL inhibitors” value in data set [1] is “universally resistant”.

With `COC(=O)c1ccc2c(c1)NC(=O)/C2=C(\Nc1ccc(N(C)C(=O)CN2CCN(C)CC2)cc1)c1ccccc1` [nintedanib], in data set [1], the “cytotoxicity in dasatinib-sensitive cases” value is reported as “potent cytotoxicity” and the “response of dasatinib-resistant T-ALL” value is given as “largely did not respond”.
